The text below walks through data of BindingDB's records for doi:10.1016/j.bmcl.2016.03.078 (Merck Research Laboratories, 2016).

In this assay the target is E3 ubiquitin-protein ligase Mdm2 (Homo sapiens, UniProt Q00987). Briefly: Displacement of Ac-Phe-Arg-Dpr(fluorophore)-Ac6c-(6-Br)Trp-Glu-Glu-Leu-NH2 from human N-terminal His6-tagged MDM2 (17 to 125 residues) expressed in Escherichia coli by fluorescence polarization assay.
E3 ubiquitin-protein ligase Mdm2, sequence (Q00987 whole entry, the tested form may be a part): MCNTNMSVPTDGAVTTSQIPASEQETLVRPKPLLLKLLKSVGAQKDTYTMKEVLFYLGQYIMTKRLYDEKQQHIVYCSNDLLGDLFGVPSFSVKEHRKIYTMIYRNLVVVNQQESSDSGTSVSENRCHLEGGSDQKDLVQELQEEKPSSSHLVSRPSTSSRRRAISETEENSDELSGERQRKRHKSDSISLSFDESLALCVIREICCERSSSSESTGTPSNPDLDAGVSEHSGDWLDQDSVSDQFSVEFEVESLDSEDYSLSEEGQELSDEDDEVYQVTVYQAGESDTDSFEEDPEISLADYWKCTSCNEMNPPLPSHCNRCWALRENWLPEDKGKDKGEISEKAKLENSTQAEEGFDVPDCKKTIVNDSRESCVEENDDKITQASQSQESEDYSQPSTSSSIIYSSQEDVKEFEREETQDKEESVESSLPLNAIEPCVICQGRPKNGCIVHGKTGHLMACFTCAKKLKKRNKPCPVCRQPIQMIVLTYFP

In general, IC50 refers to the concentration needed to halve the response being measured. In the case of `O=C(c1cnccc1C(F)(F)F)N1CCCC(Oc2ccc(C(F)(F)F)cc2)(C(=O)N2CCN(c3ccccn3)CC2)C1` (stereo unspecified), the IC50 was 2300 nM. This lies in the single-digit micromolar range.
